Laboratory results taken from PubChem BioAssay AID1259407 (Chemical Carcinogenesis Research Information System (CCRIS), 2018).
The source made the active and inactive calls. The rule behind the calls is not given here.

System: CCRIS mutagenicity, Ames/micronucleus/aberration tests
Assay: CCRIS mutagenicity studies
[1] = Test System: AMES SALMONELLA TYPHIMURIUM, Strain/Indicator: TA98, Metabolic Activation: NONE, Method: PREINCUBATION
[2] = Test System: AMES SALMONELLA TYPHIMURIUM, Strain/Indicator: TA100, Metabolic Activation: NONE, Method: PREINCUBATION
[3] = Test System: AMES SALMONELLA TYPHIMURIUM, Strain/Indicator: TA1535, Metabolic Activation: NONE, Method: PREINCUBATION

Measured: mutagenic call

O=C1OC(=O)c2ccccc21
active: End Point: IN VITRO CHROMOSOMAL ABERRATIONS, Test System: CHO CELLS, Metabolic Activation: NONE active; positive; precipitation occurred at 10 mm
inactive: End Point: IN VITRO CHROMOSOMAL ABERRATIONS, Test System: CHINESE HAMSTER OVARY CELLS, Metabolic Activation: NONE inactive; negative | End Point: IN VITRO CHROMOSOMAL ABERRATIONS, Test System: CHINESE HAMSTER OVARY CELLS, Metabolic Activation: RAT, LIVER, S-9, AROCLOR 1254 inactive; negative | Test System: AMES SALMONELLA TYPHIMURIUM, Strain/Indicator: TA98, Metabolic Activation: HAMSTER, LIVER, S-9, AROCLOR 1254 (10%), Method: PREINCUBATION inactive; negative | [1] inactive; negative | Test System: AMES SALMONELLA TYPHIMURIUM, Strain/Indicator: TA98, Metabolic Activation: RAT LIVER S-9, PHENOBARBITAL AND BETA-NAPHTHOFLAVONE, Method: PREINCUBATION inactive; negative | Test System: AMES SALMONELLA TYPHIMURIUM, Strain/Indicator: TA98, Metabolic Activation: RAT, LIVER, S-9, AROCLOR 1254 (10%), Method: PREINCUBATION inactive; negative | Test System: AMES SALMONELLA TYPHIMURIUM, Strain/Indicator: TA100, Metabolic Activation: HAMSTER, LIVER, S-9, AROCLOR 1254 (10%), Method: PREINCUBATION inactive; negative | [2] inactive; negative | Test System: AMES SALMONELLA TYPHIMURIUM, Strain/Indicator: TA100, Metabolic Activation: RAT LIVER S-9, PHENOBARBITAL AND BETA-NAPHTHOFLAVONE, Method: PREINCUBATION inactive; negative | Test System: AMES SALMONELLA TYPHIMURIUM, Strain/Indicator: TA100, Metabolic Activation: RAT, LIVER, S-9, AROCLOR 1254 (10%), Method: PREINCUBATION inactive; negative | Test System: AMES SALMONELLA TYPHIMURIUM, Strain/Indicator: TA1535, Metabolic Activation: HAMSTER, LIVER, S-9, AROCLOR 1254 (10%), Method: PREINCUBATION inactive; negative | [3] inactive; negative | Test System: AMES SALMONELLA TYPHIMURIUM, Strain/Indicator: TA1535, Metabolic Activation: RAT LIVER S-9, PHENOBARBITAL AND BETA-NAPHTHOFLAVONE, Method: PREINCUBATION inactive; negative | Test System: AMES SALMONELLA TYPHIMURIUM, Strain/Indicator: TA1535, Metabolic Activation: RAT, LIVER, S-9, AROCLOR 1254 (10%), Method: PREINCUBATION inactive; negative | Test System: AMES SALMONELLA TYPHIMURIUM, Strain/Indicator: TA1537, Metabolic Activation: HAMSTER, LIVER, S-9, AROCLOR 1254 (10%), Method: PREINCUBATION inactive; negative | Test System: AMES SALMONELLA TYPHIMURIUM, Strain/Indicator: TA1537, Metabolic Activation: NONE, Method: PREINCUBATION inactive; negative | Test System: AMES SALMONELLA TYPHIMURIUM, Strain/Indicator: TA1537, Metabolic Activation: RAT LIVER S-9, PHENOBARBITAL AND BETA-NAPHTHOFLAVONE, Method: PREINCUBATION inactive; negative | Test System: AMES SALMONELLA TYPHIMURIUM, Strain/Indicator: TA1537, Metabolic Activation: RAT, LIVER, S-9, AROCLOR 1254 (10%), Method: PREINCUBATION inactive; negative | Test System: E.COLI, Strain/Indicator: WP2UVRA, Metabolic Activation: NONE, Method: PREINCUBATION inactive; negative | Test System: E.COLI, Strain/Indicator: WP2UVRA, Metabolic Activation: RAT LIVER S-9, PHENOBARBITAL AND BETA-NAPHTHOFLAVONE, Method: PREINCUBATION inactive; negative

CCC#N
inactive: End Point: IN VITRO CHROMOSOMAL ABERRATIONS, Test System: CHO-LB CELLS, Metabolic Activation: NONE inactive; negative | End Point: IN VITRO CHROMOSOMAL ABERRATIONS, Test System: CHO-LB CELLS, Metabolic Activation: RAT, LIVER, S-9, AROCLOR 1254 inactive; negative | Test System: AMES SALMONELLA TYPHIMURIUM, Strain/Indicator: TA97, Metabolic Activation: HAMSTER, LIVER, S-9, AROCLOR 1254 (10 OR 30%), Method: PREINCUBATION inactive; negative | Test System: AMES SALMONELLA TYPHIMURIUM, Strain/Indicator: TA97, Metabolic Activation: NONE, Method: PREINCUBATION inactive; negative | Test System: AMES SALMONELLA TYPHIMURIUM, Strain/Indicator: TA97, Metabolic Activation: RAT, LIVER, S-9, AROCLOR 1254 (10 OR 30%), Method: PREINCUBATION inactive; negative | Test System: AMES SALMONELLA TYPHIMURIUM, Strain/Indicator: TA98, Metabolic Activation: HAMSTER, LIVER, S-9, AROCLOR 1254 (10 OR 30%), Method: PREINCUBATION inactive; negative | [1] inactive; negative | Test System: AMES SALMONELLA TYPHIMURIUM, Strain/Indicator: TA98, Metabolic Activation: RAT, LIVER, S-9, AROCLOR 1254 (10 OR 30%), Method: PREINCUBATION inactive; negative | Test System: AMES SALMONELLA TYPHIMURIUM, Strain/Indicator: TA100, Metabolic Activation: HAMSTER, LIVER, S-9, AROCLOR 1254 (10 OR 30%), Method: PREINCUBATION inactive; negative | [2] inactive; negative | Test System: AMES SALMONELLA TYPHIMURIUM, Strain/Indicator: TA100, Metabolic Activation: RAT, LIVER, S-9, AROCLOR 1254 (10 OR 30%), Method: PREINCUBATION inactive; negative | Test System: AMES SALMONELLA TYPHIMURIUM, Strain/Indicator: TA1535, Metabolic Activation: HAMSTER, LIVER, S-9, AROCLOR 1254 (10 OR 30%), Method: PREINCUBATION inactive; negative | [3] inactive; negative | Test System: AMES SALMONELLA TYPHIMURIUM, Strain/Indicator: TA1535, Metabolic Activation: RAT, LIVER, S-9, AROCLOR 1254 (10 OR 30%), Method: PREINCUBATION inactive; negative

N=C1CCC(=N)c2c1c(O)c1ccccc1c2O
inactive: Test System: AMES SALMONELLA TYPHIMURIUM, Strain/Indicator: TA98, Metabolic Activation: NONE, Method: STANDARD PLATE inactive; negative | Test System: AMES SALMONELLA TYPHIMURIUM, Strain/Indicator: TA100, Metabolic Activation: NONE, Method: STANDARD PLATE inactive; negative | Test System: AMES SALMONELLA TYPHIMURIUM, Strain/Indicator: TA100, Metabolic Activation: RAT, LIVER, S-9, AROCLOR 1254, Method: STANDARD PLATE inactive; negative | Test System: AMES SALMONELLA TYPHIMURIUM, Strain/Indicator: TA1535, Metabolic Activation: NONE, Method: STANDARD PLATE inactive; negative | Test System: AMES SALMONELLA TYPHIMURIUM, Strain/Indicator: TA1535, Metabolic Activation: RAT, LIVER, S-9, AROCLOR 1254, Method: STANDARD PLATE inactive; negative | Test System: AMES SALMONELLA TYPHIMURIUM, Strain/Indicator: TA1538, Metabolic Activation: NONE, Method: STANDARD PLATE inactive; negative | Test System: AMES SALMONELLA TYPHIMURIUM, Strain/Indicator: TA1538, Metabolic Activation: RAT, LIVER, S-9, AROCLOR 1254, Method: STANDARD PLATE inactive; negative
active: Test System: AMES SALMONELLA TYPHIMURIUM, Strain/Indicator: TA1537, Metabolic Activation: NONE, Method: STANDARD PLATE active; positive | Test System: AMES SALMONELLA TYPHIMURIUM, Strain/Indicator: TA1537, Metabolic Activation: RAT, LIVER, S-9, AROCLOR 1254, Method: STANDARD PLATE active; positive
